# According to US20030050242A1, “Protein polymerization inhibitors and methods of use” (priority 1999, published 2003):
# Like-named read-outs stand apart in the source and are kept apart here. Marks after values point to notes of the source that are not given here. Ends that are not written are not given here. Peptide text beside a SMILES is read from it.
# Assays:
# [1] = system: HIV-2; test: viral infection assay in H9 cells, reverse transcriptase (RT) activity in supernatant; format: cell-based; conditions: for effect on HIV-2 infection, in words: summary of the experiments in H9 cells; for Day 7 RT HIV-2 / Day 10 RT HIV-2: H9 cells, 100 μM
# Protocol: (§1) Next, the ability of peptide agents to inhibit viral infection was evaluated. Accordingly, the peptide agents listed in Table 1 were used in several viral (e.g., HIV-1, HIV-2, and SIV) infection assays. […] Once inhibitory tripeptides were identified, more specific assays were conducted to determine the effect of varying concentrations of the selected tripeptides and combination treatments (e.g., the use of more than one modified tripeptide in combination).
# (§2) To monitor the replication of virus, reverse transcriptase (RT) activity in the supernatants was assayed using a commercially available Lenti-RT activity kit. (Cavidi Tech, Uppsala, Sweden). The amount of RT was determined with the aid of a regression line of standards. […] Syncytium formation was also monitored by microscopic examination.
# (§3) (Cavidi Tech). The amount of RT was determined with the aid of a regression line of standards.
# [2] = system: SIV; test: as above; format: cell-based; conditions: for effect on SIV infection, in words: summary of the experiments in H9 cells; for Day 7 RT SIV / Day 10 RT SIV: H9 cells, 100 μM
# Protocol: as §1, §2, §3
# [3] = system: HIV-1; conditions: summary of Experiments 1-6
# Protocol: as §1
# [4] = biological target: viral capsid protein (p24) of HIV-2 (HIV-2)
# [5] = biological target: viral capsid protein (p24) of SIV (SIV)
# [6] = system: HIV-1; conditions: H9 cells, 100 μM, pos/neg
# Protocol: as §1, §2
# [7] = system: HIV-1; conditions: H9 cells, 100 μM
# Protocol: Next, the ability of peptide agents to inhibit viral infection was evaluated. Accordingly, the peptide agents listed in Table 1 were used in several viral (e.g., HIV-1, HIV-2, and SIV) infection assays. The efficiency of HIV-1, HIV-2, and SIV infection was monitored by reverse transcriptase activity, the concentration of p24 protein in the cell supernatent, and by microscopic evaluation of HIV-1 syncytia formation. In initial experiments, several modified tripeptides were screened for the ability to inhibit HIV-1, HIV-2, and SIV infection in H9 cells.
# In Experiments 1 and 2, approximately 200,000H9 cells were infected with HIV-1, HIV-2 or SIV at 25 TCID50 to test the inhibitory effect of the following synthesized tripeptides LKA-NH2, ILK-NH2, GPQ-NH2, GHK-NH2, GKG-NH2, ACQ-NH2, CQG-NH2, ARV-NH2, KAR-NH2, HKA-NH2, GAT-NH2, KAL-NH2, and GPG-NH2. Accordingly, the H9 cells were resuspended with or without the different peptides (approximately 100 μM) in 1 ml of RPMI 1640 medium supplemented with 10% (v/v) heat-inactivated fetal bovine serum (FBS), penicillin (100 u/ml), and streptomycin (100 u/ml), all available through GIBCO, and Polybrene (2 μg/ml), available through Sigma. Thereafter, viruses were added at 25 TCID50 in a volume of 20-30%1. Cells were incubated with virus at 37° C. for 1 hr then pelleted at 170× g for 7 minutes. The cells were then washed three times in RPMI medium without peptides at room temperature and pelleted at 170× g for 7 minutes, as above. After the final wash, the cells were resuspended in RPMI culture medium in a 24-well plate (Costar corporation) and kept at 37° C. in 5% CO2 with humidity.
# Culture supernatants were collected and analyzed when the medium was changed at 4, 7, 10, and 14 days post infection. To monitor the replication of virus, reverse transcriptase (RT) activity in the supernatants was assayed using a commercially available Lenti-RT activity kit. […] The amount of RT was determined with the aid of a regression line of standards. The results are presented as absorbance values (OD) and higher absorbance indicates a higher protein concentration and greater viral infection. Syncytium formation was also monitored by microscopic examination.
# In Experiment 3, (Table 5), approximately 200,000H9 cells were infected with HIV-1, HIV-2 or SIV at 25 TCID50 to test the inhibitory effect of different concentrations of peptides GPG-NH2, GKG-NH2 and CQG-NH2 and combinations of these peptides (the indicated concentration corresponds to the concentration of each tripeptide). As above, H9 cells were resuspended with or without the different peptides at varying concentrations in 1 ml of RPMI 1640 medium supplemented with 10% (v/v) heat-inactivated fetal bovine serum (FBS), penicillin (100 u/ml), and streptomycin (lOOu/ml), and Polybrene (2 μg/ml). Thereafter, viruses were added at 25 TCID50 in a volume of 20-30 μ. Cells were incubated with the indicated virus at 37° C. for 1 hr then pelleted at 170× g for 7 minutes. The cells were then washed three times in RPMI medium without peptides at room temperature and pelleted at 170× g for 7 minutes, as above. After the final wash, the cells were resuspended in RPMI culture medium in a 24-well plate (Costar corporation) and kept at 37° C. in 5% CO2 with humidity.
# Culture supernatants were collected when the medium was changed at 4, 7, and 11 days post infection. As above, the replication of each virus was monitored by detecting reverse transcriptase (RT) activity in the supernatants using the Lenti-RT activity kit.
# [8] = biological target: major capsid protein (p24) of HIV-1 (HIV-1, UniProt P04591); test: cell-based or functional assay
# [9] = Experiment 1, higher OD = greater infection
Molecule,"effect on HIV-1 infection, in words [3]","reverse transcriptase (RT) activity in the supernatants, Day 10 RT (OD) [4] [OD]","reverse transcriptase (RT) activity in the supernatants, Day 10 RT (OD) [5] [OD]",Day 7 RT HIV-2 ([1]; Experiment 1) [OD],Day 10 RT HIV-2 ([1]; Experiment 1) [OD],Day 7 RT HIV-2 ([1]; Experiment 2) [OD],Day 10 RT HIV-2 ([1]; Experiment 2) [OD],Day 7 RT SIV ([2]; Experiment 1) [OD],Day 10 RT SIV ([2]; Experiment 1) [OD],Day 7 RT SIV ([2]; Experiment 2) [OD],Day 10 RT SIV ([2]; Experiment 2) [OD],HIV-1 Syncytia ([6]; Experiment 1),HIV-1 Syncytia ([6]; Experiment 2),Day 10 RT HIV-1 ([7]; Experiment 1) [OD],"Day 7 RT HIV-1 [7, 9]",Day 7 RT HIV-1 ([7]; Experiment 2),Day 10 RT HIV-1 ([7]; Experiment 2) [OD],also measured
"NCCCC[C@H](NC(=O)CN)C(=O)NCC(N)=O [GKG-NH2, glycyl-lysyl-glycine amide] (H-Gly-Lys-Gly-NH2)",inhibited and/or prevented HIV-1 infection,–,–,–,–,–,–,–,–,–,–,–,–,–,–,–,–,"effect on HIV-2 infection, in words [1]: inhibit or prevent HIV-2 and SIV infection; effect on SIV infection, in words [2]: inhibit or prevent HIV-2 and SIV infection"
ACQ-NH2 (peptide),–,2.75,2.75,–,–,–,–,–,–,–,–,–,–,–,–,–,–,–
ARV-NH2 (peptide),–,3,1.17,–,–,–,–,–,–,–,–,–,–,–,–,–,–,–
Ala-Arg-Val (Ala-Arg-Val-NH2) [ARV-NH2],failed to prevent infection,–,–,3.380,3.003,2.237,2.628,0.210,1.172,0.212,3.004,pos,pos,1.528,0.156 OD,0.618 OD,2.829,–
Ala-Cys-Gln (Ala-Cys-Gln-NH2) [ACQ-NH2],did not prevent HIV infection,–,–,3.418,2.753,1.661,2.505,1.241,2.746,0.612,2.606,pos,pos,0.904,0.117 OD,0.606 OD,2.831,–
Cys-Gln-Gly-NH2 (peptide),–,0.296,0.11,–,–,–,–,–,–,–,–,–,–,–,–,–,–,–
GAT-NH2 (peptide),–,2.83,2.34,–,–,–,–,–,–,–,–,–,–,–,–,–,–,–
GHK-NH2 (peptide),–,2.93,2.38,–,–,–,–,–,–,–,–,–,–,–,–,–,–,–
GPQ-NH2 (peptide),–,2.73,2.18,–,–,–,–,–,–,–,–,–,–,–,–,–,–,–
Gly-Ala-Thr (Gly-Ala-Thr-NH2) [GAT-NH2],failed to prevent infection and syncytia formation,–,–,3.461,2.835,1.707,2.565,0.892,2.343,0.572,2.776,pos,pos,1.565,0.116 OD,0.776 OD,2.800,–
Gly-His-Lys (Gly-His-Lys-NH2) [GHK-NH2],failed to prevent infection and syncytia formation,–,–,3.522,2.931,1.936,2.418,0.097,2.384,0.396,2.394,pos,pos,2.151,0.289 OD,0.829 OD,3.013,–
Gly-Lys-Gly-NH2 (peptide),–,0.147,0.099,–,–,–,–,–,–,–,–,–,–,–,–,–,–,–
Gly-Pro-Gln (Gly-Pro-Gln-NH2) [GPQ-NH2],did not prevent HIV infection,–,–,3.692,2.734,1.511,2.382,1.542,2.176,0.574,2.319,pos,pos,1.965,0.204 OD,0.884 OD,2.848,–
HKA-NH2 (peptide),–,2.67,2.52,–,–,–,–,–,–,–,–,–,–,–,–,–,–,–
His-Lys-Ala (His-Lys-Ala-NH2) [HKA-NH2],did not prevent HIV infection,–,–,3.408,2.669,1.678,2.560,0.416,2.520,0.455,2.623,pos,pos,2.546,0.312 OD,1.081 OD,2.794,–
ILK-NH2 (peptide),–,2.79,2.25,–,–,–,–,–,–,–,–,–,–,–,–,–,–,–
Iso-Leu-Lys (Ile-Leu-Lys-NH2) [ILK-NH2],–,–,–,3.467,2.791,1.692,2.557,3.180,2.255,0.515,2.632,pos,pos,2.033,0.365 OD,0.581 OD,2.950,–
KAL-NH2 (peptide),–,2.75,2.52,–,–,–,–,–,–,–,–,–,–,–,–,–,–,–
KAR-NH2 (peptide),–,2.64,1.72,–,–,–,–,–,–,–,–,–,–,–,–,–,–,–
LKA-NH2 (peptide),–,2.77,2.45,–,–,–,–,–,–,–,–,–,–,–,–,–,–,–
Leu-Lys-Ala (Leu-Lys-Ala-NH2) [LKA-NH2],did not prevent HIV infection,–,–,3.649,2.769,1.689,2.637,3.577,2.452,0.724,2.797,pos,pos,2.429,0.568* OD,0.894* OD,2.989,–
Lys-Ala-Arg (Lys-Ala-Arg-NH2) [KAR-NH2],–,–,–,3.419,2.640,1.904,2.742,0.266,1.722,1.034,2.672,pos,pos,2.779,0.380 OD,0.753 OD,2.928,–
Lys-Ala-Leu (Lys-Ala-Leu-NH2) [KAL-NH2],failed to prevent infection,–,–,3.372,2.749,1.757,2.383,1.091,2.524,0.511,2.663,pos,pos,1.995,0.246 OD,0.999 OD,2.791,–
cystyl-glutaminyl-glycine amide [CQG-NH2],inhibited and/or prevented HIV-1 infection,–,–,–,–,–,–,–,–,–,–,–,–,–,–,–,–,"effect on HIV-2 infection, in words [1]: inhibit or prevent HIV-2 and SIV infection; effect on SIV infection, in words [2]: inhibit or prevent HIV-2 and SIV infection"
Leu-Lys-Ala-NH2 [LKA-NH2],–,–,–,–,–,–,–,–,–,–,–,–,–,–,–,–,–,"reverse transcriptase (RT) activity in the supernatants, Day 10 RT (OD) [8]: 2.43 OD"
Ile-Leu-Lys-NH2 [ILK-NH2],–,–,–,–,–,–,–,–,–,–,–,–,–,–,–,–,–,"reverse transcriptase (RT) activity in the supernatants, Day 10 RT (OD) [8]: 2.03 OD"
Gly-Pro-Gln-NH2 [GPQ-NH2],–,–,–,–,–,–,–,–,–,–,–,–,–,–,–,–,–,"reverse transcriptase (RT) activity in the supernatants, Day 10 RT (OD) [8]: 1.97 OD"
Gly-His-Lys-NH2 [GHK-NH2],–,–,–,–,–,–,–,–,–,–,–,–,–,–,–,–,–,"reverse transcriptase (RT) activity in the supernatants, Day 10 RT (OD) [8]: 2.15 OD"
Gly-Lys-Gly-NH2 [Gly-Lys-Gly-NH2],–,–,–,–,–,–,–,–,–,–,–,–,–,–,–,–,–,"reverse transcriptase (RT) activity in the supernatants, Day 10 RT (OD) [8]: 0.074 OD"
